According to patent US9493479B2 (Merck Sharp & Dohme Corp., priority 2013, dated 2016):

Legend:
[1] = target: T1, WT-Integrase (Human immunodeficiency virus type 1 group M subtype B, UniProt P04585); test: InSTANT integrase DNA strand transfer functional assay; assay type: biochemical, HIV; settings: SPA strand transfer, 15 minutes at 37° C.
T1 construct: assembled PVT SPA beads with WT-Integrase and boitinylated DNA
Description: InSTANT is an integrase DNA strand transfer functional assay used to determine potency of InSTIs, which was carried out as described below. 8 μl of SPA buffer (27.8 mM Hepes, 27.8 mM MgCl2, 111.1 μg/mL BSA, 5.56 mM βME, and 57.1 mM NaCl) containing 5 nM 3H-labeled target DNA (prepared separately) and 10 μl of assembled PVT SPA beads with WT-Integrase and boitinylated DNA (prepared separately) were added to the assay plate which contained 0.4 μl of test compound(s) or positive or negative control compound(s) per well. The assay plate was shaken for 1 minute on HT-91002 1.0 MM shaker and then was sealed and incubated for 15 minutes at 37° C. The assay reaction was quenched by adding 4 μl of 1.25 M EDTA to each well of the assay plate with mixing. After incubating the plate at room temperature for 1 hour, the quenched plate was spun at 200 g for 1 minute and read on TopCount (1 minute per well). Percent inhibition was calculated by [1−(Sample−Min)/(Max−Min)]*100. Compound potency IP or IC50 was determined by a 4-parameter dose response curve analysis.

[2] = test system: HIV-1 (NL4-3 strain); test: ViKinG (Viral Kinetics GFP Reporter) assay for inhibition of HIV replication; assay type: cell-based; settings: Human immunodeficiency virus 1, NL43; MT4-GFP cells infected with HIV-1 NL4-3; RPMI + 10% or 50% NHS (not given); infected cells at 48 h / 24 h
Source text: The ViKinG (Viral Kinetics GFP Reporter) assay is an in vitro kinetic assay that employs the MT4-gag-GFP reporter cell line (Wang et al., “Assessment of the susceptibility of mutant HIV-1 to antiviral agents.” J Virological Methods 165:230-37 (2010)) to quantify the number of new cells infected in each round of replication. The purpose of the ViKinG assay is to identify agents that inhibit HIV progression. Briefly, HIV infection results in tat transactivation of the stably expressed HIV LTR promoter to drive gagGFP expression. Thus, an increase in the number of GFP-MT4 cells results following HIV infection.
MT4-GFP cells (250,000 cells/m1) were bulk-infected with HIV-1 (NL4-3 strain) at low multiplicity of infection (MOT) in RPMI+10% FBS for 24 hours. Cells were then washed once in RPMI+10% FBS and resuspended RPMI+10% or 50% normal human serum (NHS). Test compounds were serial-diluted in DMSO on an ECHO® liquid handling platform (Labcyte Corp., Sunnyvale, Calif.), along with a triple drug control (integrase, protease and NNRTI compounds). The infected MT4-GFP cells were added to a 384-well poly-D-lysine coated black plate with clear bottom in which the diluted test compounds were placed. The cells were seeded at 8,000 cells per well and the final DMSO concentration was 0.4%. The infected cells (Green GFP cells) were quantified at both 24 and 48 hours post incubation using Acumen® eX3 (TTP Labtech Ltd., Hertfordshire, United Kingdom). Viral reproductive ratio (R0) was determined using the number of infected cells at 48 hours divided by the number of infected cells at 24 hours. Percent viral growth inhibition was calculated by [1−(R−Rtripledrug)/(RDMSO−Rtripledrug)]*100. Compound potency IP or IC50 was determined by a 4-parameter dose response curve analysis.

| SMILES | IC50 [1] [nM] | IC50 [2] [nM] |
| --- | --- | --- |
| CC(C)c1c(C(=O)N(C)C)n2c(c(O)c1=O)C(=O)N(Cc1ccc(F)c(Cl)c1)CC2 [Compound 19, 2-(3-chloro-4-fluorobenzyl)-9-hydroxy-7-isopropyl-N,N-dimethyl-1,8-dioxo-2,3,4,8-tetrahydro-1H-pyrido[1,2-a]pyrazine-6-carboxamide] | 10 | 82 |
| CC1CCN(C(=O)C(=O)N(C)C)Cc2c1c(=O)c(O)c1n2CCN(Cc2ccc(F)c(Cl)c2)C1=O (centres unmarked) [Compound 18, 2-(9-(3-chloro-4-fluorobenzyl)-7-hydroxy-5-methyl-6,8-dioxo-4,5,8,9,10,11-hexahydropyrazino[1′,2′:1,6]pyrido[2,3-c]azepin-2(1H,3H,6H)-yl)-N,N-dimethyl-2-oxoacetamide] | 20 | 3660 |
| O=C1c2c(O)c(=O)c3c(n2CCN1Cc1ccc(F)c(Cl)c1)COC31CCCC1O (centres unmarked) [Compound 14, 7′-(3-chloro-4-fluorobenzyl)-2,5′-dihydroxy-8′,9′-dihydrospiro[cyclopentane-1,3′-furo[3′,4′:5,6]pyrido[1,2-a]pyrazine]-4′,6′(1′H,7′H)-dione] | 12 | 144 |
| CC1=CCOCc2c1c(=O)c(O)c1n2CCN(Cc2ccc(F)c(Cl)c2)C1=O [Compound 4, 9-(3-chloro-4-fluorobenzyl)-7-hydroxy-5-methyl-10,11-dihydro-1H-oxepino[4′,3′:5,6]pyrido[1,2-a]pyrazine-6,8(3H,9H)-dione] | 18 | 91 |
